PMC8703884, “Synthesis and Biological Evaluation of S-, O- and Se-Containing Dispirooxindoles” (Molecules, 2021)

How the values were obtained:
[1] = tested on: A549 human lung adenocarcinoma epithelial cell line; test: MTT cytotoxicity test, A549; assay type: cell-based; settings: 72 h incubation
[2] = MTT cytotoxicity test, Hek293T; assay type: cell-based; settings: human, 72 h incubation
[3] = tested on: LNCaP human prostate cancer cell line; test: MTT cytotoxicity test, LNCaP; assay type: cell-based; settings: MTT test; for CC50: Homo sapiens, LNCaP, read-out: CC50, LNCaP
[4] = tested on: PC3 human prostate cancer cell line; test: MTT cytotoxicity test, PC3; assay type: cell-based; settings: for CC50: Homo sapiens
[5] = tested on: p53 expression level in p53wt A549 cell line; test: p53 activation, β-galactosidase reporter construction; settings: high concentrations (>100 μM), 24 h
Description: The β-galactosidase reporter construction equipped with the p53 promotor frame [46] was used to assess the p53 expression level in p53wt A549 cell line. The compounds were tested in the concentration range of 0.5–120 μM with triple dilution steps. The incubation time was 24 h. To take into account the toxic effect of the molecules, the output signal was normalized considering the number of the cells estimated by MTT test with the same incubation tome (24 h). The output was statistically significant if the background signal was exceeded two or more times.

HCT116 cells = tested on: HCT116 cells; design: method as in PMID 24997575; settings: MTT assay; cited from earlier work
HEK293 cells = tested on: HEK293 cells; design: method as in PMID 21058726; settings: 24 h cytotoxicity, MTT assay; cited from earlier work
[6] = tested on: MCF7 cells (hormone-dependent); design: method as in PMID 23802716; settings: cited from earlier work
PC3 cell line = tested on: PC3 cell line; design: method as in PMID 23802716; settings: cited from earlier work
[7] = tested on: PC3 human prostate adenocarcinoma cells (p53-null); design: method as in PMID 28339198; settings: mitogenesis inhibition, dye assay, WST-8; cited from earlier work
[8] = tested on: LNCaP cells (androgen-dependent); design: method as in PMID 28339198; settings: mitogenesis inhibition, dye assay, WST-8; cited from earlier work
[9] = tested on: HCT116^+/+ human colon carcinoma cells; design: method as in PMID 28339198; settings: cited from earlier work
[10] = tested on: HCT116^−/− human colon carcinoma cells; design: method as in PMID 28339198; settings: cited from earlier work
[11] = tested on: MCF7 breast cancer cell line; test: MTT cytotoxicity test, MCF7; assay type: cell-based; settings: Homo sapiens, 72 h incubation
Description: (§1) MTT test. […] Assays were performed in triplicates.

[12] = MTT cytotoxicity test, VA13; assay type: cell-based; settings: human, VA13 SV40-transformed normal lung fibroblast cells, 72 h incubation
Description: as §1

[13] = tested on: HCT116^+/+ human colon cancer cells (p53 positive); test: MTT cytotoxicity test, HCT116 p53+/+; settings: Homo sapiens, HCT-116, read-out: CC50, HCT^+/+
Excerpt: (§2) The used models included human prostate cancer cell lines LNCaP and PC3, breast cancer cell line (MCF-7), human colon cancer cells (HCT116^+/+, p53 positive, p53^+/+ and HCT116^−/−, p53 negative, p53^−/−), human lung adenocarcinoma epithelial cell line (A549), SV40-transformed normal human lung fibroblast cells (VA13), as well as human embryonic kidney 293 cells (Hek293) stably expressing SV40 large T antigen (Hek293T). The cytotoxicity of the evaluated molecules was properly assessed using a MTT assay based on the modified approach reported by Ferrari and colleagues.
(§3) To further elucidate the dominant mode of action, we used HCT116^+/+ and HCT116^−/− cells by analogy with the paper published by Shangary and colleagues. This isogenic cell line is commonly applied to investigate the p53/MDM2-dependent mode of action.
(§4) MTT test. The MTT assay was carried out according to [35] with few modifications; 3000 Cells (for HEK293T, A549 and MCF7cell lines) or 4000 cells (for VA13 cell line) were seeded in each well of a 96-well plate. […] Assays were performed in triplicates. […] The MTT solution was then discarded and 140 µL of DMSO was added. The plates were swayed on a shaker (60 rpm) to solubilize the formazan. […] The analysis of cytotoxicity and the estimation of IC50 values were carried out with the built-in functions in the GraphPad Prism program (GraphPad Software, Inc., San Diego, CA) P53 activation.

[14] = tested on: HCT116^−/− human colon cancer cells (p53 negative); test: MTT cytotoxicity test, HCT116 p53-/-; settings: HCT-116, read-out: CC50, HCT^−/−
Excerpt: as §2, §3, §4

For `CN1CC2(NC(=O)N(c3ccc(F)c(Cl)c3)C2=O)C2(C1)C(=O)Nc1ccc(Cl)cc12` (stereo not shown) [Compound 9r, 5″-Chloro-1-(3-chloro-4-fluorophenyl)-1′-methyldispiro[imidazolidine-4,3′-pyrrolidine-4′,3″-indoline]-2,2″,5-trione], the CC50 [1] was 35.3 ± 17.7 µM, the CC50 at 72 h [2] was 15.1 ± 1.2 µM and the CC50 [3] was 19.6 ± 1.8 µM. For the same compound, the “CC50, LNCaP” value [3] was “good activity”, the “selectivity on LNCaP cells over PC3 cells” value [3] was “selective” and the CC50 [4] was over 50 µM. It also gave a p53 activation [5] of 2.1 fold.
For `CC(C)(C)CC1N[C@@H](C(=O)Nc2ccc(C(N)=O)cc2)[C@H](c2ccc(F)c(Cl)c2)C12C(=O)Nc1cc(Cl)ccc12` (stereo partly shown) [Compound V], the IC50 (HCT116 cells) is listed as 0.09 µM.
In the case of `O=C1C2CCC3(C(=O)Nc4ccccc43)C2C(=O)N1Cc1ccc(Cl)cc1` (stereo not shown) [Compound IV], the CC50 (HEK293 cells) is given as 0.44 µM.
For `CCOC(=O)C1CSC2(C(=O)N(C)c3ccc(Br)cc32)N1C(=O)C1CCCCC1` (stereo not shown) [VI], the IC50 [6] is listed as 0.04 µM and the IC50 (PC3 cell line) is listed as 0.41 µM.
For `CCN1[C@@H](C(=O)CC23CCC(C(=O)O)(CC2)CC3)[C@H](c2ccc(F)c(Cl)c2)C2(C(=O)Nc3cc(Cl)ccc32)C12CCCCC2` (stereo partly shown) [II], the IC50 [7] is listed as 22 µM, the IC50 [8] is listed as 0.018 ± 0.013 µM and the “selectivity towards p53-positive cells” value ([9]; HCT116^+/+ vs HCT116^−/−) is listed as 80 fold. The IC50 [9] was 0.1 µM and the IC50 [10] was 8 µM.
For `C=CCN1C(=O)C2(CN(C)CC23C(=O)Nc2ccc(Cl)cc23)NC1=S` (stereo not shown) [Compound 4d, 5″-Chloro-1′-methyl-1-allyl-2-thioxodispiro[imidazolidine-4,3′-pyrrolidine-4′,3″-indoline]-2″,5-dione], the CC50 [1] was 32.1 ± 6.7 µM, the CC50 [11] was 68.4 ± 8.8 µM and the CC50 at 72 h [12] was 30.8 ± 4.5 µM. It also gave a CC50 at 72 h [2] of 11.5 ± 3 µM, a CC50 [13] of 57.7 ± 18.4 µM and a CC50 [14] of 40.1 ± 5.23 µM. The CC50 [3] was 20 ± 3.6 µM, the “selectivity on LNCaP cells over PC3 cells” value [3] was “moderate selectivity” and the CC50 [4] was 50 ± 9.1 µM. It also gave a melting point of 141 to 142 °C.
Compound `CN1CC2(NC(=S)N(Cc3cccc(Cl)c3)C2=O)C2(C1)C(=O)Nc1ccccc12` (stereo not shown) [Compound 4o, 1′-Methyl-1-(3-chlorobenzyl)-2-thioxodispiro[imidazolidine-4,3′-pyrrolidine-4′,3″-indoline]-2″,5-dione] has a CC50 [1] of 53.4 ± 11.2 µM, a CC50 [11] of 23.2 ± 3.6 µM and a CC50 at 72 h [12] of 36.3 ± 3.2 µM. It also gave a CC50 at 72 h [2] of 48 ± 5.3 µM, a CC50 [13] of over 100 µM and a CC50 [14] of over 100 µM. For the same compound, the CC50 [3] was over 100 µM, the CC50 [4] was over 100 µM and the melting point was 273 to 274 °C.
In the case of `CN1CC2(NC(=S)N(C3CC3)C2=O)C2(C1)C(=O)Nc1ccc(Cl)cc12` (stereo not shown) [Compound 4t, 5″-Chloro-1′-methyl-1-cyclopropyl-2-thioxodispiro[imidazolidine-4,3′-pyrrolidine-4′,3″-indoline]-2″,5-dione], the CC50 [1] is reported as over 100 µM, the CC50 [11] is reported as over 100 µM and the CC50 at 72 h [12] is reported as over 100 µM. For the same compound, the CC50 at 72 h [2] was over 100 µM, the CC50 [13] was over 100 µM and the CC50 [14] was over 100 µM. The CC50 [3] was over 100 µM, the CC50 [4] was over 100 µM and the melting point was 275 to 276 °C.
For `CN1CC2(NC(=S)N(c3ccc(F)c(Cl)c3)C2=O)C2(C1)C(=O)Nc1ccc(Cl)cc12` (stereo not shown) [Compound 4r, 5″-Chloro-1′-methyl-1-(3-chloro-4-fluorophenyl)-2-thioxodispiro[imidazolidine-4,3′-pyrrolidine-4′,3″-indoline]-2″,5-dione], the CC50 [1] was 14.1 ± 1.8 µM, the CC50 [11] was 14.1 ± 1.2 µM and the CC50 at 72 h [12] was 13.9 ± 1.5 µM. For the same compound, the CC50 at 72 h [2] was 11.1 ± 1.3 µM, the CC50 [13] was over 100 µM and the CC50 [14] was over 100 µM. For the same compound, the CC50 [3] was over 100 µM, the “CC50, LNCaP” value [3] was “absolutely inactive” and the “CC50, PC3” value [4] was “absolutely inactive”. For the same compound, the CC50 [4] was over 100 µM and the melting point was 177 to 180 °C.
